Results reported in BigSolDB 2.1.

NNC(=O)c1ccncc1
solubility (mole fraction)
Conditions | 283.15 K | 288.15 K | 293.15 K | 298.15 K | 303.15 K | 308.15 K | 313.15 K | 318.15 K | 323.15 K
in DMF | 0.023 | 0.027 | 0.031 | 0.035 | 0.0412 | 0.0458 | 0.0511 | 0.0567 | 0.0649
in acetonitrile | 0.000725 | 0.000912 | 0.00109 | 0.00141 | 0.00169 | 0.002 | 0.00241 | 0.00288 | 0.00331
in ethanol | 0.00266 | 0.00318 | 0.00384 | 0.00465 | 0.00549 | 0.00646 | 0.00754 | 0.0087 | 0.00996
in ethyl acetate | 0.000976 | 0.0012 | 0.00136 | 0.0016 | 0.00195 | 0.00234 | 0.00279 | 0.00331 | 0.00374
in isopropanol | 0.0021 | 0.00253 | 0.00314 | 0.00373 | 0.00453 | 0.00558 | 0.00651 | 0.00804 | 0.00949
in methanol | 0.00574 | 0.0067 | 0.00797 | 0.00961 | 0.0112 | 0.0131 | 0.0151 | 0.0179 | 0.0211
in n-propanol | 0.00219 | 0.00264 | 0.00329 | 0.00419 | 0.00495 | 0.0059 | 0.00705 | 0.0084 | 0.00983
in water | 0.0106 | 0.0134 | 0.0159 | 0.0198 | 0.024 | 0.0296 | 0.0354 | 0.0421 | 0.0517
